Source: patent US4730005A, “Leukotriene antagonist” (SmithKline Beckman Corporation, priority 1986, dated 1988)

Biological target: T1, leukotriene D4 (LTD4) induced contraction of guinea pig tracheal tissues (Cavia porcellus, UniProt Q2NNR5)
T1 construct: Guinea pig (adult male albino Hartley strain) tracheal spiral strips; from tissue; host or cells: guinea pig trachea (spiral strips, adult male albino Hartley strain)
T1 sequence (Q2NNR5 1-340): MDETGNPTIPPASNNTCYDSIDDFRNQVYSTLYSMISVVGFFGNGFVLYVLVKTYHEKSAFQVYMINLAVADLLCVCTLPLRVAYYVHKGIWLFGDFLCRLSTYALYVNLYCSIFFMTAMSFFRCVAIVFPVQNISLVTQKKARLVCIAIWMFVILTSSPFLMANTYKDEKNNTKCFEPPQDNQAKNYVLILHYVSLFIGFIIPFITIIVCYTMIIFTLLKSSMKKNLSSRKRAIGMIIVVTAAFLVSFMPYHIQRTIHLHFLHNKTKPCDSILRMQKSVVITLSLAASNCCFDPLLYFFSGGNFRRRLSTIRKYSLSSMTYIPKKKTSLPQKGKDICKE
Test: in vitro inhibition of LTD4 induced contraction of guinea pig tracheal spiral strips
Assay type: cell-based, guinea pig (adult male albino Hartley strain)
Conditions: guinea pig trachea, LTD4 agonist, 30 min pretreatment with test compound
Description: The leukotriene antagonist activity of the compounds of this invention is measured by the ability of the compounds to inhibit the leukotriene induced contraction of guinea pig tracheal tissues in vitro and to inhibit leukotriene induced bronchoconstriction in guinea pigs in vivo. The following methodologies were employed: In vitro: Guinea pig (adult male albino Hartley strain) tracheal spiral strips of approximate dimensions 2 to 3 mm cross-sectional width and 3.5 cm length were bathed in modified Krebs buffer in jacketed 10 ml tissue bath and continously aerated with 95% 02 /5% CO2. The tissues were connected via silk suture to force displacement transducers for recording isometric tension. The tissues were equilibrated for 1 hr., pretreated for 15 minutes with meclofenamic acid (1 μM) to remove intrinsic prostaglandin responses, and then pretreated for an additional 30 minutes with either the test compound or vehicle control. A cumulative concentration-response curve for LTD4 on triplicate tissues was generated by successive increases in the bath concentration of the LTD4. In order to minimize intertissue variability, the contractions elicited by LTD4 were standardized as a percentage of the maximum response obtained to a reference agonist, carbachol (10 μM). Calculations: The averages of the triplicate LTD4 concentration-response curves both in the presence and absence of the test compound were plotted on log graph paper. The concentration of LTD4 needed to elicit 30% of the contraction elicited by carbachol was measured and defined as the EC30. The -log KB value for the test compound was determined by the following equations: [formula] In vivo: Anesthetized, spontaneously breathing guinea pigs (Adult male albino Hartley strain) were monitored on a Buxco pulmonary mechanics computer. Changes in airway resistance (RL) were calculated by the computer on a breath-by-breath basis at isovolumic points from signals measuring airflow and transpulmonary pressure using differential pressure transducers. Animals received either test compound or vehicle control intravenously via the jugular vein. LTD4 was then injected into the jugular vein. The bronchoconstriction produced was reflected by % changes in airways resistance relative to the baseline values obtained prior to injection of the test compound or vehicle control. Each guinea pig received either vehicle control or test compound.

SMILES | Kb [nM]
CCCCCCCCCCC#Cc1ccccc1C(SCCC(=O)O)SCCC(=O)O [2 2 CCC10 H21 H, 4,6-Dithia-5-[2-(1-dodecyn-1-yl)phenyl]nonanedioic acid] | 794
CCCc1c(OCCCCCOc2ccccc2C(SCCC(=O)O)SCCC(=O)O)ccc(C(C)=O)c1O [4,6-Dithia-5-[2-(5-(4-acetyl-3-hydroxy-2-propylphenoxy)-pentoxy)phenyl]nonanedioic acid] | 251
O=C(O)CCSC(SCCC(=O)O)c1ccccc1CCCCCCCCC1CCCCC1 [2 2 C8 H16 cyclohexyl H, 4,6-Dithia-5-[2-(8-cyclohexyloctyl)phenyl]nonanedioic acid] | 3160
CCCCCCCCc1ccccc1C(SCCC(=O)O)SCCC(=O)O [2 2 C8 H17 H, 4,6-dithia-5-(2-octylphenyl)nonanedioic acid] | 6310
CCCCCCCCCOc1cccc(C(SCCC(=O)O)SCCC(=O)O)c1 [2 2 H OC9 H19, 4,6-dithia-5-(3-nonyloxyphenyl)nonanedioic acid] | 1260
O=C(O)CCSC(SCCC(=O)O)c1cccc(CCCCCCCCc2ccccc2)c1 [2 2 H C8 H16 phenyl, 4,6-dithia-5-[3-(8-phenyloctyl)phenyl]nonanedioic acid] | 1000
O=C(O)CCSC(SCCC(=O)O)c1ccccc1CCCCCC/C=C\c1ccccc1 [2 2 (CH2)6CHCHphenyl H, 4,6-Dithia-5-[2-(8-phenyl-7(Z)-octenyl)phenyl]nonanedioic acid] | 631
CCCCCCCCCC/C=C/c1ccccc1C(SCCC(=O)O)SCCC(=O)O [2 2 CHCHC10 H21 trans H, 4,6-Dithia-5-[2-(1-trans-dodecenyl)phenyl]nonanedioic acid] | 1580
C#CCCCCCCCCCCc1ccccc1C(SCCC(=O)O)SCCC(=O)O [2 2 C10 H20 CCH H, 4,6-Dithia-5-[2-(11-dodecynyl)phenyl]nonanedioic acid] | 398

The next lines start with the values.

Kb [nM] | SMILES
2510 | CCCCc1ccc(CCCCc2ccccc2C(SCCC(=O)O)SCCC(=O)O)cc1 [2 2 [drawing 19] H, 4,6-Dithia-5-[2-(4-(4-butylphenyl)butyl)phenyl]nonanedioic acid]
1260 | CCCCCCCCCCCCc1ccsc1C(SCCC(=O)O)SCCC(=O)O [Formula (V) 2 2 C12 H25 H, 4,6-dithia-5-(3-dodecyl-2-thienyl)nonanedioic acid]
1260 | CCCCCCCCCCCOc1ccc(OC)cc1C(SCCC(=O)O)SCCC(=O)O [2 2 OC11 H23 CH3 O, 4,6-dithia-5-(5-methoxy-2-undecyloxyphenyl)nonanedioic acid]
1580 | CCCCCCCCCOc1ccccc1C(SCCC(=O)O)SCCC(=O)O [2 2 OC9 H19 H, 4,6-dithia-5-(2-nonyloxyphenyl)nonanedioic acid]
1000 | CCCCC/C=C\C/C=C\COc1ccccc1C(SCCC(=O)O)SCCC(=O)O [2 2 OCH2CHCHCH2CHCHC5 H11 H, 4,6-dithia-5-[2-(2(Z),5(Z)-undecadienyloxy)phenyl]nonanedioic acid]
794 | CCCCCCCCCCCOc1ccc([N+](=O)[O-])cc1C(SCCC(=O)O)SCCC(=O)O [2 2 OC11 H23 NO2, 4,6-dithia-5-(5-nitro-2-undecyloxyphenyl)nonanedioic acid]
794 | CCCCC/C=C\C/C=C\COc1cccc(C(SCCC(=O)O)SCCC(=O)O)c1 [2 2 H OCH2 CHCHCH2 CHCHC5 H11, 4,6-dithia-5-[3-(2(Z),5(Z)-undecadienyloxy)phenyl]nonanedioic acid]
3160 | CCCCCCCCCCCCc1csc(C(SCCC(=O)O)SCCC(=O)O)c1 [Formula (V) 2 2 H C12 H25, 4,6-Dithia-5-(4-dodecyl-2-thienyl)nonanedioic acid]
1580 | CCCCCCCCCCCCc1ccccc1C(SCCC(=O)O)[S+]([O-])CCC(=O)O (stereo not shown) [5-(2-dodecylphenyl)-4-sulfinyl-6-thianonanedioic acid]
794 | CCCCCCCCCCCOc1cccc(C(SCCC(=O)O)SCCC(=O)O)c1 [2 2 H OC11 H23, 4,6-dithia-5-(3-undecyloxyphenyl)nonanedioic acid]
